{"source": "patent US20230103444A1", "about": "(The Regents of the University of Colorado, a Body Corporate, priority 2020, published 2023)", "key": {"SW620 cells": {"test_system": "SW620 cells", "experiment": "Annexin V-FITC apoptosis assay", "format": "cell-based, human", "conditions": "12 h, compared to DMSO; positive control SN-38", "protocol": "SW620 cells were plated at 30,000 cells/well in 96-well plates. […] Cells were then rinsed 2× with cold PBS, 1× with cold Annexin-V staining buffer (10 mM HEPES, pH 7.4, 140 mM NaCl, 2.5 mM CaCl2), and then incubated with Annexin-V FITC at 1:100 for 30 min in the dark. Cells were then rinsed 2× with Annexin-V staining buffer and FITC intensity was measured using an EnVision® plate reader (PerkinElmer, Hopkinton, Mass.)."}, "[1]": {"experiment": "Aqueous solubility in PBS", "format": "physicochemical", "conditions": "aqueous with cosolvent or surfactant or cyclodextrin; 10% DMSO in PBS (pH 7.4)", "protocol": "The measurement of solubility in PBS was conducted in duplicate experiments. The consensus LogP (CLogP) values were obtained using the SwissADME web tools. [Daina et al., 2017]"}, "[2]": {"experiment": "Pharmacokinetics in CD-1 mice", "protocol": "Whole blood was harvested at specific time points and the separated plasma frozen at −80° C. for storage or used for LC-MS/MS analysis."}, "[3]": {"test_system": "VimPro-GFP SW620 xenograft tumors", "experiment": "Pharmacodynamic Western blot of xenograft tumor tissue", "format": "in vivo, athymic nude mice", "conditions": "50 mg/kg i.p. QD 5 days", "protocol": "CRC cell lines and homogenized tumor tissue samples from mice were resuspended in RIPA lysis buffer (20 mM Tris-HCl (pH 7.5), 150 mM NaCl, 1 mM Na2EDTA, 1 mM EGTA, 1% NP-40, 1% sodium deoxycholate, 2.5 mM sodium pyrophosphate, 1 mM b-glycerophosphate, 1 mM Na3VO4, 0.1 mM PMSF. Protein concentration was determined using the Pierce™ BCA protein assay kit (ThermoFisher, Waltham, Mass.). Forty micrograms of sample were run on 10% Bis-Tris gels. Following electrophoresis, the proteins were transferred to a nitrocellulose membrane. The membranes were blocked at room temperature with 5% non-fat milk in TBS/Tween® 20 (TBST contains 20 mM Tris, 150 mM NaCl, and 0.1% Tween®20 (Croda International PLC, Snaith, UK) for 1 hour at room temperature. Membranes were washed three times with TBST. Blots were incubated with the appropriate primary antibody in 5% nonfat milk in TBST overnight at 4° C. Membranes were washed three times with TBST and then incubated with appropriate secondary antibody for one hour. Membranes were washed again with TBST three times. […]\nTwo million VimPro-GFP SW620 cells suspended in 100 μL of a 1:1 mixture of Matrigel® matrix (Corning Life Sciences, Corning, N.Y.) and RPMI 1640 were injected into the flanks of 9-week old female athymic nude mice (Nude-Foxn1nu (069)) (Envigo, Huntingdon, Cambridgeshire, UK). Growth was monitored with caliper measurements 3× per week. […]"}, "[4]": {"test_system": "CRC042 patient-derived tumor organoids", "experiment": "Patient tumor organoid cytotoxicity", "format": "cell-based", "conditions": "Homo sapiens; single agent, Table 4A"}, "[5]": {"test_system": "CRC102 patient-derived tumor organoids", "experiment": "Patient tumor organoid cytotoxicity", "format": "cell-based", "conditions": "Homo sapiens; single agent, Table 4A", "protocol": "Patient Cell Tumor Organoid Culture. CRC048 and CRC102 patient cell samples were expanded and cultured as PDTOs using reported methodologies and reagents. (Drost et al., 2016; Sato et al., 2011) Briefly, patient cells were washed with PBS, digested with TrypLE, and filtered through 100 μm cell strainer before used in 3D cell culture. Patient cells were seeded at 5,000 cells per well in 96-well plates, coated with 2% Matrigel, and allowed to self-assemble as PDTOs over 72 h.\nTumor Organoid Cytotoxicity."}}}
{"smiles": "Cc1cc(Nc2ccc(NC(=O)Cc3cccs3)cc2)nc(N2CCCC2)n1", "note": "[Compound 6, N-(4-((6-methyl-2-(pyrrolidin-1-yl)pyrimidin-4-yl)amino)phenyl)-2-(thiophen-2-yl)acetamide]", "values": [{"measurement": "apoptosis (annexin-V staining)", "setting": "SW620 cells", "value": "induced significant apoptosis"}, {"measurement": "solubility", "setting": "[1]", "value": 700, "unit": "µg/mL"}, {"measurement": "AUC(0-t)", "setting": "[2]; female, CD-1, mouse, plasma, ip, 50 mg/kg", "value": 80300, "unit": "ng·h/mL"}, {"measurement": "Cmax", "setting": "[2]; female, CD-1, mouse, plasma, ip, 50 mg/kg, CMax (ng/mL), single i.p. 50 mg/kg", "value": "~30000", "unit": "ng/mL"}, {"measurement": "CMax (ng/mL)", "setting": "[2]; plasma, single i.p. 50 mg/kg, 50 mg/kg", "value": "29,900 ng/mL"}, {"measurement": "CL", "setting": "[2]; single i.p. 50 mg/kg", "value": 10.3, "unit": "mL/min/kg"}, {"measurement": "V2", "setting": "[2]; single i.p. 50 mg/kg", "value": 2.7, "unit": "L/kg"}, {"measurement": "epithelial marker ZO-1 and cleaved caspase 3 in tumor tissue", "setting": "[3]", "value": "not statistically significant, upregulation of the epithelial marker ZO-1 and induction of cleaved caspase 3"}, {"measurement": "mesenchymal markers vimentin, vimentin reporter (VimPro-GFP) and slug in tumor tissue", "setting": "[3]", "value": "significant downregulation"}, {"measurement": "IC50", "setting": "[4]", "value": 18.6, "unit": "µM"}, {"measurement": "IC50", "setting": "[5]", "value": 22.6, "unit": "µM"}]}
